# Patent US5990078A, “Means of increasing estrogen receptor levels in neural tissue” (The Trustees of Columbia University in the City of New York, priority 1996, dated 1999)
# Entries after “also recorded” stand apart in the source; their conditions may differ.
# T1: estrogen receptor (Rattus norvegicus, UniProt P06211)
# T1 sequence (P06211 1-600): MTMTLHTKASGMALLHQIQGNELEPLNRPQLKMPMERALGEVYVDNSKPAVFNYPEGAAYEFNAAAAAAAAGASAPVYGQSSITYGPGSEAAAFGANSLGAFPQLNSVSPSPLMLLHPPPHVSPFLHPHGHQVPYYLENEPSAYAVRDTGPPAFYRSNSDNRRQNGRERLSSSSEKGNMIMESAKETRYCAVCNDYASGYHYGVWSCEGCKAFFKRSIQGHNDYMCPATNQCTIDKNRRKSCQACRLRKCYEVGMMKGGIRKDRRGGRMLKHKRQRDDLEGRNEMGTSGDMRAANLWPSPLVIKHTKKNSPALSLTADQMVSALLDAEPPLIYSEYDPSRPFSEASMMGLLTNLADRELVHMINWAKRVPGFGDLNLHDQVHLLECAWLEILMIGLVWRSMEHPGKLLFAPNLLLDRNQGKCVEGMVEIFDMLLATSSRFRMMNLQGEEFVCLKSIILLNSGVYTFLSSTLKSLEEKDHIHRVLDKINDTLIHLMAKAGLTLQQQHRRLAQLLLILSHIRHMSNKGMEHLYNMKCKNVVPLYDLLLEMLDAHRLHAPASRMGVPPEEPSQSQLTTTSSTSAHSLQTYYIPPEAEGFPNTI
# T2: estrogen receptor (Homo sapiens, UniProt P03372)
# T2 construct: Scatchard analysis on sectioned hypothalamic tissue and MCF7 cells using this protocol; endogenous in cells; host or cells: MCF-7 cells
# T2 sequence (P03372 1-595): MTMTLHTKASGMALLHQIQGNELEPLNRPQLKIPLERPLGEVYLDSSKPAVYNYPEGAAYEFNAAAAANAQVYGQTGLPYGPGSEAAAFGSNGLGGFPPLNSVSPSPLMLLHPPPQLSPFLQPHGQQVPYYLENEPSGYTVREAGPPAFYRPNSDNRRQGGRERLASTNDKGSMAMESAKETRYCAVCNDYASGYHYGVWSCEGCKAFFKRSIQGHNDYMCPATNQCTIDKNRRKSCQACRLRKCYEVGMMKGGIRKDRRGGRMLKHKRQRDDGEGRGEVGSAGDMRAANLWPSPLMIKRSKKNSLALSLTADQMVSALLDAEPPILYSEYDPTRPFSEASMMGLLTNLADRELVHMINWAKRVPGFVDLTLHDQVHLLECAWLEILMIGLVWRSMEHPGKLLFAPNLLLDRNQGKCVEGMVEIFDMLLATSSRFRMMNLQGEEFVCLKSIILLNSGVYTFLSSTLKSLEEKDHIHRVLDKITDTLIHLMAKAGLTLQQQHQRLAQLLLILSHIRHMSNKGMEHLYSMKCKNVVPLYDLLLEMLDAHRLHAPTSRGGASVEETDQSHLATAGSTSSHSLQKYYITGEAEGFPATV
# B1: BDNF: brain-derived neurotrophic factor, a neurotrophin (protein, UniProt P23560 19-247, looked up)
# Neurotrophic factor BDNF …: APMKEANIRGQGGLAYPGVRTHGTLESVNGPKAGSRGLTSLADTFEHVIEELLDEDQKVRPNEENNKDADLYTSRVMLSSQVPLEPPLLFLLEEYKNYLDAANMSMRVRRHSDPARRGELSVCDSISEWVTAADKKTAVDMSGGTVTVLEKVPVSKGQLKQYFYETKCNPMGYTKEGCRGIDKRHWNSQCRTTQSYVRALTMDSKKRIGWRFIRIDTSCVCTLTIKRGR
# B2: NT-4/5: neurotrophin-4/5 (protein, UniProt P34130 81-210, looked up)
# Neurotrophin-4: GVSETAPASRRGELAVCDAVSGWVTDRRTAVDLRGREVEVLGEVPAAGGSPLRQYFFETRCKADNAEEGGPGAGGGGCRGVDRRHWVSECKAKQSYVRALTADAQGRVGWRWIRIDTACVCTLLSRTGRA
# What was measured:
# [1] = system: p75^NGFR mRNA; assay: Northern blot analysis of p75NGFR mRNA in PC12 cells; assay type: cell-based, rat; settings: PC12 cells, NGF treatment
# Protocol: PC12 cells were cultured on collagen-coated coverslips or tissue culture dishes in phenol red-free RPMI 1640 (Gibco BRL) nutrient medium supplemented with 10% (heat-inactivated) gelded (steroid-deficient) horse serum (JRH Biological), according to a modification of standard procedures. In these experiments, fetal calf serum, which contains physiologic levels of estrogen, (32 pg/ml) was not used.
# Total RNA, prepared by a modification of the Chomczynski and Sacchi method, was size-fractionated (10-20 μg/lane) on a 1.2% agarose-18% formaldehyde gel and capillary-transferred to nylon membrane (Hybond-N; Amersham). Filters were prehybridized (4-18 h) and hybridized (36-40 h) at 42° C. in 50% Formamide, 3× SSC, 0.1M Tris, 5× Denhardt's and 10% Dextran Sulfate. Probes were labeled with [α-^32 P]-dCTP by the random priming procedure (Random Priming kit, Boehringer Mannheim). trkA mRNA was identified by hybridization with pDM97, a 450 bp trkA-specific probe corresponding to the extracellular and transmembrane domains of the trkA gene [67; gift of L. F. Parada, NCI-FCRDC]. p75^NGFR was probed by hybridization with p5b, a 2 Kb probe corresponding to the extracellular domain of the p75^NGFR gene. Blots were washed first in 0.2×SSC and 0.5% SDS briefly at room temperature and then for 2 h at 60° C., with frequent changes of wash buffer. Filters were then exposed to film (Kodak X-Omat) between intensifying screens and stored at -70° C. for 1-4 days before developing.
# Using a standard densitometry package (Jandel Scientific), optical density measurements were obtained from X-ray film. trkA and p75^NGFR transcript densities were normalized to an internal control to account for variation in the amount of RNA loaded.
# Total RNA was analyzed by Northern blot analyses, using ^32 P-labeled cDNA probes for trkA and p75^NGFR.
# [2] = system: estrogen receptor mRNA; assay: In situ hybridization for estrogen receptor mRNA in PC12 cells; assay type: cell-based, rat; settings: NGF-treated (14 days, >2 weeks)
# Text: Estrogen receptor mRNA was identified using a previously described unique 48-base oligonucleotide sequence, identical to a region within the ligand-binding domain of the rat uterine estrogen receptor [51] and with less than 25% homology with the other members of the steroid receptor superfamily of DNA binding proteins. The probes were 3' end-labeled with digoxigenin-deoxyuridine-triphosphate using terminal deoxynucleotidyl transferase (BRL).
# In situ hybridization histochemistry for the estrogen receptor was performed according to the procedure described in Miranda and Toran-Allerand [71]. Briefly, paraformaldehyde-fixed cultures were hybridized with digoxigenin-labeled oligonucleotide for 16-18 hours, washed extensively and later incubated with antidigoxigenin antibody conjugated to alkaline phosphatase (Boehringer Mannheim). RNA-oligonucleotide hybrids were visualized with a blue color reaction (nitroblue tetrazolium salt/5-bromo-4-chloro-3-indolyl-phosphate) catalyzed by antibody-conjugated alkaline-phosphatase. Color reaction was terminated for all groups when color appeared fully developed in one condition. Coverslips were dehydrated briefly, cleared in Histoclear (National Diagnostics) and coverslipped in Permount. […]
# [3] = system: estrogen receptor; assay: Tyrosine phosphorylation of the estrogen receptor, cortical explants; assay type: cell-based
# Protocol: Estrogen and the neurotrophins have important roles in the developing and adult central nervous system (CNS). […] The hypothesis that estrogen/neurotrophin receptor co-expression leads to reciprocal regulation at the level of signal transduction, through cross-coupling of converging estrogen and neurotrophin signaling pathways whose end-points in the nucleus may be the very same genes was tested. Postnatal day 2 cerebral cortex was maintained as organotypic explants in roller tube culture for 7 days.
# [4] = system: PC12-E2 cells; assay: Morphological study of neurite growth in PC12-E2 cells; assay type: cell-based
# Text: It has been previously reported that wild-type, differentiated PC12 pheochromocytoma cells express very low levels of estrogen receptors. Here it is reported that a PC12 cell variant, PC12-E2 (Wu, Bradshaw, J. Cell Physiol. 164:1995), is estrogen responsive and expresses high estrogen receptor level (≈50% of the levels observed in estrogen receptor over-expressing MCF-7 cells). Moreover, although tyrosine phosphorylation of the estrogen receptor appeared to be expressed constitutively, these cells responded to added estrogen. PC12-E2 responsiveness to estrogen was determined morphologically and by measuring estradiol-induced ERK activation. […] Preliminary co-precipitation experiments show an association between src and estrogen receptor, src with MEK (MAP Kinase/ERK-activating Kinase), and MEK with B-raf, MEK, which phosphorylates the ERKs on tyrosine residues, is known to exist as a complex consisting of at least hsp90 and B-raf.
# [5] = biological target: T1, estrogen receptor; assay: Nuclear exchange assay: specific nuclear estrogen binding in PC12 cells; assay type: cell-based; parameters: endogenous in cells; settings: for Nuclear estrogen binding after 4 days of NGF treatment: 4 days NGF
# Protocol: In these experiments, fetal calf serum, which contains physiologic levels of estrogen, (32 pg/ml) was not used.
# Estrogen binding was estimated by a modification of the nuclear exchange assay. […] Groups receiving estrogen were deprived of the steroid 24 h prior to the assay. […] Tubes were then centrifuged briefly (5 mins, 14000 g) to recover a pellet and washed (3×) in the same buffer, excluding Triton X. Since the estrogen receptor is a nuclear receptor, in some experiments a sucrose gradient protocol was employed to ensure a clean nuclear pellet. […] This mixture was then carefully layered over a buffer containing 1.8 M sucrose and centrifuged for 90 mins, at 15,000 g at 4° C., and the nuclear pellet recovered from the bottom of the tube. […] Specific binding was determined as the difference between total binding and non-specific binding (in the presence of an unlabeled competing ligand). […] Group differences were evaluated using one way analysis of variance with Student-Newman-Keuls test of planned post-hoc comparisons. Differences were considered significant at the 0.05 level.
# A modification of the nuclear exchange assay was used to determine the presence of estrogen binding sites in nuclear pellets of PC12 cells.
# [6] = biological target: T1, estrogen receptor; parameters: endogenous in cells; settings: NGF-sensitive PC12 cells (Sohrabji et al., 1994a); cited from earlier work
# [7] = biological target: T2, estrogen receptor; assay: Scatchard analysis of [3H]-moxestrol binding, MCF7 cells
# Protocol: (§1) Nuclear receptor binding sites were identified using previously published protocols (Sohrabji et al., 1994a,b) and were standardized for this experiment using both MCF-7 cells and hypothalamic tissue. Cortical and basal forebrain cultures were maintained for 8 days in vitro. At the end of this period, cultures were incubated for 2 h at 34° C. with […] [^3 H]-moxestol (R2858; specific activity 80 Ci/mmol) in feed (phenol red free RPMI+10% gelded horse serum). The gelded horse serum had undetectable levels of estrogens, androgens, and progesterone (see tissue culture protocol), so that there were no endogenous steroids to compete with the nuclear binding of moxestrol. Control cultures were exposed to [^3 H]-moxestrol in the presence of an excess (2 mM) of unlabeled diethyl stilbestrol (DES), a synthetic estrogen. The radioligand-containing feed was then removed and the cultures washed and harvested for nuclear pellets by sucrose gradient density centrifugation at 4° C. Radioactivity was eluted from nuclear pellets with 95% ethanol (moxestrol is completely soluble in >50% ethanol) and the radioactivity counted in a liquid scintillation counter. […] Specific binding was determined as the difference between total binding and non-specific binding (in the presence of an unlabeled competing ligand) and the data expressed as femtomoles of specifically bound [^3 H] -moxestrol/mg DNA. […]
# [8] = biological target: T1, estrogen receptor; assay: Scatchard analysis of [3H]-moxestrol binding, P14 hypothalamus; parameters: endogenous in cells
# Protocol: as §1
# [9] = read-out: Dissociation constant (Kd)
molecule,measurement,setting,value
"NGF: nerve growth factor, member of the neurotrophin family of growth factors",p75NGFR mRNA vs untreated controls,[1],increase
same,Hybridization to estrogen receptor probe,[2],strongly hybridize
same,Tyrosine phosphorylation of the estrogen receptor,[3],induced tyrosine phosphorylation
same,Neurite outgrowth,[4],extensive and rapid
same,Time to induction of neurite outgrowth,[4],≤ 24 h
same,Increase in specific nuclear estrogen binding vs naive (untreated) cells,[5]; NGF for 3 weeks (21 days),sixfold
same,Nuclear estrogen binding after 1 day of NGF exposure,"[5]; time course, 1 day NGF",No increase was observed
same,Nuclear estrogen binding after 4 days of NGF treatment,[5]; time course,noticeable elevation; also recorded: increase in estrogen binding is present as early as 4 days
same,Nuclear estrogen binding after 4 days of NGF treatment,"[5]; time course, listed as nerve growth factor",double
same,Increase in estrogen binding sites,[6],sixfold
NT-3: neurotrophin-3,Tyrosine phosphorylation of the estrogen receptor,[3],not
"C#C[C@]1(O)CC[C@H]2[C@@H]3CCc4cc(O)ccc4[C@H]3[C@@H](OC)C[C@@]21C [[^3 H]-moxestrol, 11β-methoxy-[^3 H]-moxestrol]",Maximal binding (Bmas),[7],1800-2500 fmol/mg DNA
same,Kd,[7]; [9],0.7 to 0.78 nM
same,Maximal binding (Bmas),[8],310 fmol/mg DNA
same,Kd,[8]; [9],0.86 nM
B1,Tyrosine phosphorylation of the estrogen receptor,[3],induced tyrosine phosphorylation
B2,Tyrosine phosphorylation of the estrogen receptor,[3],induced tyrosine phosphorylation
